Test results reported in EP0751768B1, “ANTI-VIRAL AND ANTI-CANCER AGENT” (Radopath Pharmaceuticals International Limited, priority 1994, dated 1995).
“And” between values parts separate entries of the source, which are not always exact repeats. Equal values may be shown once. Read-outs that look alike come from different tables or passages of the source.

Columns and labels:
[1] = tested on: HIV-1RF; assay: microbe, parasite or virus in culture; format: cell-based, human immunodeficiency virus HIV-1RF; details: read-out: IC50
[2] = tested on: uninfected cells
[3] = tested on: HIV-I IIIB; assay: Acute infection assay, HIV core antigen ELISA (HIV-I IIIB); format: cell-based
[4] = tested on: B16F1-murine melanoma; format: in vivo
[5] = tested on: MAC15A (murine adenocarcinoma colon); format: in vivo, NMR1 mice
[6] = in vitro; details: CC50 (Toxicity)
[7] = in vivo; details: rat, iv
[8] = rats, preliminary data
[9] = in vivo; details: mouse, iv
[10] = tested on: B16 murine melanoma; assay: Anti-tumour activity of C17 against B16 melanoma (tumour weight inhibition); format: in vivo, female C57/black mice
[11] = mice, preliminary data
[12] = tested on: HIV-1 infection; assay: Pilot study of C17 in patients with HIV-1 infection and HIV-related Kaposi's sarcoma; format: in vivo, humans; set-up: CD4 ABS / CD8 ABS: unit not given here
[13] = In vitro anti-tumour activity; format: cell-based; details: compound appears to require activation in the liver
[14] = tested on: M5076-reticulum cell sarcoma; assay: Anti-tumour activity against M5076 solid tumour (tumour weight inhibition); format: in vivo, murine
Experimental: The in vivo anti-tumour responses of the compound according to the invention were assessed against the ascitic tumours, MAC15A murine colon adenocarcinoma and various solid tumour models. The MAC15A ascites tumour cells were transplanted into male NMR1 mice by ip innoculation at a cell density of 1 x 10^5 cells in 200µl buffer (Table I). The solid tumour models included the MAC13 and MAC16 murine colon adenocarcinomas, the B16 F1 murine melanoma and the M5076 reticulum cell sarcoma.
Treatment commenced 3 days after ip transplant or, in the case of solid tumours such as MAC13 and MAC16, treatment commenced when average tumour volumes reached 40mm^3.
The animals were located in both cases into groups of 5 to 8 animals.
The animals were sacrificed after 12 days or when tumours ulcerated, tumour volume exceeded 1000mm^3 or loss of body weight exceeded 50%.
Except where otherwise stated, the compound used was dissolved in DMSO and diluted in sterile distilled water, at appropriate concentrations before administration in a solvent volume of 200µl. Anti-tumour responses were obtained by comparing the median survival times or tumour growth inhibition against solvent controls.
% Tumour Weight Inhibition:-

[15] = read-out: CC50 (Toxicity), listed under Against HIV-I IIIB, single determinations
[16] = Against HIV-I IIIB, single determinations, read-out: IC50 (Antiviral)
[17] = read-out: CC50 (Toxicity), Average, listed under Against HIV-I IIIB, average of the lines above
[18] = Against HIV-I IIIB, average of the lines above, read-out: IC50 (Antiviral), Average
[19] = 100mg kg^-1 ip per day, schedule days 1,2,3,4,5, median, T-test group, C-solvent control, 5 animals per group
[20] = day 7, MTD by 5 consecutive daily intravenous injections
[21] = control compounds in infected cells

## Cc1cn([C@H]2C[C@H](N=[N+]=[N-])[C@@H](CO)O2)c(=O)[nH]c1=O [AZT]
[1]
  IC50: 0.01 µM and 0.02 µM

## NC(=O)c1cc([N+](=O)[O-])c(Cl)c([N+](=O)[O-])c1Cl [C2]
[2]; [15]
  CC50: 70 µM
[3]; [16]
  IC50: 2 µM

## O=C(O)c1cc([N+](=O)[O-])c(Cl)c([N+](=O)[O-])c1 [C4, 4-chloro-3,5-dinitrobenzoic acid]
[2]; Table 7, 50% inhibition of cells by 14C protein hydrolysate uptake
  CD50: 70µm
[2]; [17]
  CC50: 85 µM
[2]; [15]
  CC50: 100 µM and 70 µM
[3]; [18]
  IC50: 35 µM
[3]; [16]
  IC50: 40 µM and 30 µM
[1]; Table 7, 50% reduction in HIV core antigen levels, 72 hours post-infection
  IC50: 30 µM
[4]; 50 mg/kg per day ip, days 1,5, 12 days after sc transplant, corn oil
  % Tumour Weight Inhibition: 10%
[4]; 75 mg/kg per day ip, days 1,5, 12 days after sc transplant, corn oil
  % Tumour Weight Inhibition: 41%
[4]; 100 mg/kg per day ip, days 1,5, 12 days after sc transplant, corn oil
  % Tumour Weight Inhibition: 39%
[5]; [19]
  T/C%: 271%

## NC(=O)c1cc([N+](=O)[O-])c(Cl)c([N+](=O)[O-])c1 [C5]
[2]; [15]
  CC50: 50 µM
[3]; [16]
  IC50: 5 µM

## COC(=O)c1cc([N+](=O)[O-])c(Cl)c([N+](=O)[O-])c1 [C6, 4-chloro-3,5-dinitrobenzoic acid methyl ester]
[2]
  CC50: 60 µM
[3]
  SI (Selectivity Index): 12
[4]; mouse, in vivo
  % Tumour Weight Inhibition: 67% and 43%

## O=C(O)c1cc([N+](=O)[O-])cc([N+](=O)[O-])c1Cl [C7, 2-chloro-3,5-dinitrobenzoic acid]
[6]; listed under Against HIV-I IIIB, single determinations
  CC50 at 72 h: 35 µM
[2]; [17]
  CC50: > 175 µM
[3]; [18]
  IC50: 22 µM

## COC(=O)c1cc([N+](=O)[O-])cc([N+](=O)[O-])c1Cl [C8, 2-chloro-3,5-dinitrobenzoic acid methyl ester]
[2]
  CC50: 60 µM
[3]
  SI (Selectivity Index): 5

## O=C(O)c1ccc(Cl)c([N+](=O)[O-])c1 [C9, 4-chloro-3-nitrobenzoic acid]
[2]
  CC50: > 200 µM

## O=C(O)c1ccc([N+](=O)[O-])cc1Cl [C10, 2-chloro-4-nitrobenzoic acid]
[2]
  CC50: > 200 µM

## O=C(O)c1ccc(Cl)c(Cl)c1 [C11, 3,4-dichlorobenzoic acid]
[2]
  CC50: > 200 µM

## O=C(O)c1cc(Cl)ccc1Cl [C12, 2,5-dichlorobenzoic acid]
[2]
  CC50: > 200 µM
[3]; Human immunodeficiency virus 1, IIIB, read-out: IC50 (Antiviral)
  IC50: > 200 µM
[5]; mouse, in vivo, ip
  T/C%: 171%

## O=C(O)c1cc([N+](=O)[O-])ccc1Cl [C17, 2-chloro-5-nitrobenzoic acid]
[7]
  MTD at 5 days: 900 mg/kg/day
[6]
  CC50: > 1000 µM
[8]; [20]
  red blood cell count, haemoglobin concentration, macrophage count, white blood cell count (WBC), lymphocyte count and haematocrit (HTC): increases
[8]; day 14
  red blood cell count, haemoglobin concentration, macrophage count, white blood cell count (WBC), lymphocyte count and haematocrit (HTC): returned to normal
[9]
  MTD at 5 days: 950 mg/kg/day
[10]; 700 mg/kg per day ip, days 1,2,3,4,5,6, 12 days after sc transplant, 6 animals per group
  % Tumour Weight Inhibition: 62%
[10]; refers to Table 6
  anti-tumour activity in vivo (in words): considerable anti-tumour activity
[11]; [20]
  red blood cell count, haemoglobin concentration, macrophage count, white blood cell count (WBC), lymphocyte count and haematocrit (HTC): increases
[11]; day 14
  red blood cell count, haemoglobin concentration, macrophage count, white blood cell count (WBC), lymphocyte count and haematocrit (HTC): returned to normal
[12]; Patient 1, After (day 20), Before (day 1): 0.399, 10mg/kg body weight/day im 5 days weekly
  CD4 ABS: 0.760
[12]; Patient 1, After (day 20), Before (day 1): 0.567, 10mg/kg body weight/day im 5 days weekly
  CD8 ABS: 0.840
[12]; Patient 1, After (day 20), Before (day 1): 0.70, 10mg/kg body weight/day im 5 days weekly
  CD4/CD8: 0.90
[12]; Patient 1, After (day 20), Before (day 1): 2.1, 10mg/kg body weight/day im 5 days weekly
  Lymphocytes: 2.0 x 10^3mm^-3
[12]; Patient 1, After (day 20), Before (day 1): 19, 10mg/kg body weight/day im 5 days weekly
  CD4 %: 38%
[12]; Patient 2, After (day 14), Before (day 1): 0.360, 10mg/kg body weight/day im 5 days weekly
  CD4 ABS: 0.513
[12]; Patient 2, After (day 14), Before (day 1): 0.38, 10mg/kg body weight/day im 5 days weekly
  CD4/CD8: 0.59
[12]; Patient 2, After (day 14), Before (day 1): 0.940, 10mg/kg body weight/day im 5 days weekly
  CD8 ABS: 0.874
[12]; Patient 2, After (day 14), Before (day 1): 2.0, 10mg/kg body weight/day im 5 days weekly
  Lymphocytes: 1.9 x 10^3mm^-3
[12]; Patient 2, After (day 14), Before (day 1): 18, 10mg/kg body weight/day im 5 days weekly
  CD4 %: 27%
[12]; Patient 3, After (day 20), Before (day 1): 0.072, 10mg/kg body weight/day im 5 days weekly
  CD4 ABS: 0.187
[12]; Patient 3, After (day 20), Before (day 1): 0.270, 10mg/kg body weight/day im 5 days weekly
  CD8 ABS: 0.682
[12]; Patient 3, After (day 20), Before (day 1): 0.27, 10mg/kg body weight/day im 5 days weekly
  CD4/CD8: 0.27
[12]; Patient 3, After (day 20), Before (day 1): 0.9, 10mg/kg body weight/day im 5 days weekly
  Lymphocytes: 1.1 x 10^3mm^-3
[12]; Patient 3, After (day 20), Before (day 1): 8, 10mg/kg body weight/day im 5 days weekly
  CD4 %: 17%
[12]; Patient 4, After (day 14), Before (day 1): 0.08, 10mg/kg body weight/day im 5 days weekly
  CD4/CD8: 0.35
[12]; Patient 4, After (day 14), Before (day 1): 0.108, 10mg/kg body weight/day im 5 days weekly
  CD4 ABS: 0.440
[12]; Patient 4, After (day 14), Before (day 1): 1.350, 10mg/kg body weight/day im 5 days weekly
  CD8 ABS: 1.260
[12]; Patient 4, After (day 14), Before (day 1): 1.8, 10mg/kg body weight/day im 5 days weekly
  Lymphocytes: 2.0 x 10^3mm^-3
[12]; Patient 4, After (day 14), Before (day 1): 6, 10mg/kg body weight/day im 5 days weekly
  CD4 %: 22%
[12]; Patient 5, After (day 21), Before (day 1): 0.56, 10mg/kg body weight/day im 5 days weekly
  CD4/CD8: 0.66
[12]; Patient 5, After (day 21), Before (day 1): 0.812, 10mg/kg body weight/day im 5 days weekly
  CD4 ABS: 1.023
[12]; Patient 5, After (day 21), Before (day 1): 1.456, 10mg/kg body weight/day im 5 days weekly
  CD8 ABS: 1.550
[12]; Patient 5, After (day 21), Before (day 1): 2.8, 10mg/kg body weight/day im 5 days weekly
  Lymphocytes: 3.1 x 10^3mm^-3
[12]; Patient 5, After (day 21), Before (day 1): 29, 10mg/kg body weight/day im 5 days weekly
  CD4 %: 33%
[12]; Patient 6 (AIDS-related Kaposi's sarcoma), After (day 34), Before (day 1): 0.31, 10mg/kg body weight/day im 5 days weekly
  CD4/CD8: 0.47
[12]; Patient 6 (AIDS-related Kaposi's sarcoma), After (day 34), Before (day 1): 0.378, 10mg/kg body weight/day im 5 days weekly
  CD4 ABS: 0.437
[12]; Patient 6 (AIDS-related Kaposi's sarcoma), After (day 34), Before (day 1): 1.218, 10mg/kg body weight/day im 5 days weekly
  CD8 ABS: 0.931
[12]; Patient 6 (AIDS-related Kaposi's sarcoma), After (day 34), Before (day 1): 2.1, 10mg/kg body weight/day im 5 days weekly
  Lymphocytes: 1.9 x 10^3mm^-3
[12]; Patient 6 (AIDS-related Kaposi's sarcoma), After (day 34), Before (day 1): 18, 10mg/kg body weight/day im 5 days weekly
  CD4 %: 23%
[12]; Patient 6, AIDS-related Kaposi's sarcoma
  sarcoma lesions (in words): disappeared
[12]; all 6 patients, about 2 weeks after the beginning of the therapy, 10mg/kg body weight/day im 5 days weekly
  CD4 counts (in words): showed an increase
[12]; including weight gain and a marked decrease in opportunistic infections and diarrhea
  patient general condition (in words): clinical improvements
[13]
  anti-tumour activity in vitro (in words): could not be supported in vitro

## O=C(O)c1ccc([N+](=O)[O-])cc1[N+](=O)[O-] [C28, 2,4-dinitrobenzoic acid]
[5]; [19]
  T/C%: 100%

## O=C(O)c1cc([N+](=O)[O-])cc([N+](=O)[O-])c1 [C29, 3,5-dinitrobenzoic acid]
[5]; [19]
  T/C%: 100%

## CC(C)(C)NC(=O)[C@@H]1C[C@@H]2CCCC[C@@H]2CN1C[C@@H](O)[C@H](Cc1ccccc1)NC(=O)[C@H](CC(N)=O)NC(=O)c1ccc2ccccc2n1 [compound 8959]
[1]; [21]
  IC50: 0.001 µM

## Nc1ccn([C@H]2CC[C@@H](CO)O2)c(=O)n1 [ddC]
[1]; [21]
  IC50: 0.2 µM

## NC(=O)c1cc([N+](=O)[O-])c(Cl)c([N+](=O)[O-])c1Cl [the amide]
[14]
  anti-tumour activity (in words): without anti-tumour activity
[14]; relative to 2,4-dichloro-3,5-dinitrobenzoic acid
  increase in toxicity: 10 fold
